Experiments:
[1] = target: T1, Transcription intermediary factor 1-alpha (Homo sapiens) (UniProt O15164); conditions: 100 uM
T1 sequence (whole entry): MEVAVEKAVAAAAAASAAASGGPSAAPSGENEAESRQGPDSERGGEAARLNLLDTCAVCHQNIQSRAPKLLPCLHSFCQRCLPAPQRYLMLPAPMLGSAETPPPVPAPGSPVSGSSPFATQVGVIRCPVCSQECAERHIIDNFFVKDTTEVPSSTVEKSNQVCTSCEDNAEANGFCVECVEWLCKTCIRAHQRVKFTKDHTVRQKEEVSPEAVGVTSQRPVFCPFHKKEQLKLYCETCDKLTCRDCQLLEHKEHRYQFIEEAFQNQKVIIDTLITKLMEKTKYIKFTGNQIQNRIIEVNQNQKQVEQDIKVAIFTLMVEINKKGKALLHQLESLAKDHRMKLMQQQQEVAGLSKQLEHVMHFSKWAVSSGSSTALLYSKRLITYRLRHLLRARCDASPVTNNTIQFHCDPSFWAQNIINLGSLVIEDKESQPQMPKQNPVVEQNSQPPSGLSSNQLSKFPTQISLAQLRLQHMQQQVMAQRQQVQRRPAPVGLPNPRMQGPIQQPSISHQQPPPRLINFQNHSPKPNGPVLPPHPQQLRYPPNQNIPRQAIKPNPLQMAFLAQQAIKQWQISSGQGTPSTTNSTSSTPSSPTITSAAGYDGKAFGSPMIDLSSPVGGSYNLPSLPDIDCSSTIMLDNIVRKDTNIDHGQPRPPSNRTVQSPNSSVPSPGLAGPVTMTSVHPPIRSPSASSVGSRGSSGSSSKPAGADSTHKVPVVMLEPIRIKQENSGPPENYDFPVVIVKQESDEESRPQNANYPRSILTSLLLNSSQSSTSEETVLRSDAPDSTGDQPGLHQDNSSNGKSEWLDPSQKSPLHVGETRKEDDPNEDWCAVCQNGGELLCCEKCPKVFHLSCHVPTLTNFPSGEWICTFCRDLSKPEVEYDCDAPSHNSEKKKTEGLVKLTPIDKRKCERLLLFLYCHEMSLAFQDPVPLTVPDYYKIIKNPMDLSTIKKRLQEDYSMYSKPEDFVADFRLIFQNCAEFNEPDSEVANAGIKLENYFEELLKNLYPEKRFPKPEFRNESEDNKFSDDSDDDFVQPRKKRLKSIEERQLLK

[2] = target: Protein polybromo-1 (Homo sapiens) (UniProt Q86U86); conditions: 100 uM
[3] = target: Bromodomain adjacent to zinc finger domain protein 2B (Homo sapiens) (UniProt Q9UIF8); conditions: 100 uM
[4] = target: T1, Transcription intermediary factor 1-alpha (Homo sapiens); conditions: 50 uM

Sequence of Protein polybromo-1 (Homo sapiens) (Q86U86 whole entry, the tested form may be a part): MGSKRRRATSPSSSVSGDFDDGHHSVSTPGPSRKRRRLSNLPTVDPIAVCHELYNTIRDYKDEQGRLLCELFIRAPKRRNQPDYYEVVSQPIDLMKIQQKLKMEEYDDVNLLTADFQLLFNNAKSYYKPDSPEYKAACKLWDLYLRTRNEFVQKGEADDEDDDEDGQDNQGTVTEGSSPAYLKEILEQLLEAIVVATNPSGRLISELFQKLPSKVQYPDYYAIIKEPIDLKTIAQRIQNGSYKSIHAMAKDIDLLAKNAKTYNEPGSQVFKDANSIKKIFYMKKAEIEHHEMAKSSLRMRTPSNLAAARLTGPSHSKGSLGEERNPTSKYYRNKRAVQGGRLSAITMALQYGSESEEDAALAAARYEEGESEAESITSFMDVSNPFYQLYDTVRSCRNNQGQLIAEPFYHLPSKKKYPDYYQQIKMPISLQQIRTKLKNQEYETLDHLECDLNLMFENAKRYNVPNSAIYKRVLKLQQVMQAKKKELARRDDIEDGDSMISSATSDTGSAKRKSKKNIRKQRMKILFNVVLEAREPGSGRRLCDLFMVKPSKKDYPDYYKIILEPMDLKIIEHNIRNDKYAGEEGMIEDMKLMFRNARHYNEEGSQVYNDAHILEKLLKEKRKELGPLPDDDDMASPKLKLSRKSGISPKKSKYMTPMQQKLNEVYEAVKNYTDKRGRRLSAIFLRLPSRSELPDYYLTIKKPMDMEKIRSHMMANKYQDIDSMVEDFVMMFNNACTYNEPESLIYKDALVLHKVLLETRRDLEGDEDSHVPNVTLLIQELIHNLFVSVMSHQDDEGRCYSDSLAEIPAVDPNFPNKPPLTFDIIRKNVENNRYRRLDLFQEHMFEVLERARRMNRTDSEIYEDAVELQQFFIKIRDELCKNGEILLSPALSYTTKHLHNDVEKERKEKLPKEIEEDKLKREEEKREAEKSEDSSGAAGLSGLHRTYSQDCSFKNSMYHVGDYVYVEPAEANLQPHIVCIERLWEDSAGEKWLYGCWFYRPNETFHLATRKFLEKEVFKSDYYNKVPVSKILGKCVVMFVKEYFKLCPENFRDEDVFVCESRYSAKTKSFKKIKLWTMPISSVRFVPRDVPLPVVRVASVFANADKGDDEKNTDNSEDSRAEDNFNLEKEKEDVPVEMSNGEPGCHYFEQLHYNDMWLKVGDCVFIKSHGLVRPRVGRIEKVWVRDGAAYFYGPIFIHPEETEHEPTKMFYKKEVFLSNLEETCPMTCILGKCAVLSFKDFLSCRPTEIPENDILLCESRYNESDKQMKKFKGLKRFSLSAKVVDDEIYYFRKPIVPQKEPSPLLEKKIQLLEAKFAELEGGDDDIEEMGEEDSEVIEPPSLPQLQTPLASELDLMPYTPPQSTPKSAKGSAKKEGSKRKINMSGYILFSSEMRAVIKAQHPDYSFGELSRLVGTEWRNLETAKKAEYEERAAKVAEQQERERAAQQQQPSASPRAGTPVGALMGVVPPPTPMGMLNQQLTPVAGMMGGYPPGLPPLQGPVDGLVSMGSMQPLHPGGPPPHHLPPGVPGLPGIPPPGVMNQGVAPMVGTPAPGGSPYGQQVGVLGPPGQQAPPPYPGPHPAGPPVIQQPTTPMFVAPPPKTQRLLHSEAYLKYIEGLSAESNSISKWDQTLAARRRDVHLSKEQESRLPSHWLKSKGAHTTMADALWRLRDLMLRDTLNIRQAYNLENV
Sequence of Bromodomain adjacent to zinc finger domain protein 2B (Homo sapiens) (Q9UIF8 whole entry, the tested form may be a part): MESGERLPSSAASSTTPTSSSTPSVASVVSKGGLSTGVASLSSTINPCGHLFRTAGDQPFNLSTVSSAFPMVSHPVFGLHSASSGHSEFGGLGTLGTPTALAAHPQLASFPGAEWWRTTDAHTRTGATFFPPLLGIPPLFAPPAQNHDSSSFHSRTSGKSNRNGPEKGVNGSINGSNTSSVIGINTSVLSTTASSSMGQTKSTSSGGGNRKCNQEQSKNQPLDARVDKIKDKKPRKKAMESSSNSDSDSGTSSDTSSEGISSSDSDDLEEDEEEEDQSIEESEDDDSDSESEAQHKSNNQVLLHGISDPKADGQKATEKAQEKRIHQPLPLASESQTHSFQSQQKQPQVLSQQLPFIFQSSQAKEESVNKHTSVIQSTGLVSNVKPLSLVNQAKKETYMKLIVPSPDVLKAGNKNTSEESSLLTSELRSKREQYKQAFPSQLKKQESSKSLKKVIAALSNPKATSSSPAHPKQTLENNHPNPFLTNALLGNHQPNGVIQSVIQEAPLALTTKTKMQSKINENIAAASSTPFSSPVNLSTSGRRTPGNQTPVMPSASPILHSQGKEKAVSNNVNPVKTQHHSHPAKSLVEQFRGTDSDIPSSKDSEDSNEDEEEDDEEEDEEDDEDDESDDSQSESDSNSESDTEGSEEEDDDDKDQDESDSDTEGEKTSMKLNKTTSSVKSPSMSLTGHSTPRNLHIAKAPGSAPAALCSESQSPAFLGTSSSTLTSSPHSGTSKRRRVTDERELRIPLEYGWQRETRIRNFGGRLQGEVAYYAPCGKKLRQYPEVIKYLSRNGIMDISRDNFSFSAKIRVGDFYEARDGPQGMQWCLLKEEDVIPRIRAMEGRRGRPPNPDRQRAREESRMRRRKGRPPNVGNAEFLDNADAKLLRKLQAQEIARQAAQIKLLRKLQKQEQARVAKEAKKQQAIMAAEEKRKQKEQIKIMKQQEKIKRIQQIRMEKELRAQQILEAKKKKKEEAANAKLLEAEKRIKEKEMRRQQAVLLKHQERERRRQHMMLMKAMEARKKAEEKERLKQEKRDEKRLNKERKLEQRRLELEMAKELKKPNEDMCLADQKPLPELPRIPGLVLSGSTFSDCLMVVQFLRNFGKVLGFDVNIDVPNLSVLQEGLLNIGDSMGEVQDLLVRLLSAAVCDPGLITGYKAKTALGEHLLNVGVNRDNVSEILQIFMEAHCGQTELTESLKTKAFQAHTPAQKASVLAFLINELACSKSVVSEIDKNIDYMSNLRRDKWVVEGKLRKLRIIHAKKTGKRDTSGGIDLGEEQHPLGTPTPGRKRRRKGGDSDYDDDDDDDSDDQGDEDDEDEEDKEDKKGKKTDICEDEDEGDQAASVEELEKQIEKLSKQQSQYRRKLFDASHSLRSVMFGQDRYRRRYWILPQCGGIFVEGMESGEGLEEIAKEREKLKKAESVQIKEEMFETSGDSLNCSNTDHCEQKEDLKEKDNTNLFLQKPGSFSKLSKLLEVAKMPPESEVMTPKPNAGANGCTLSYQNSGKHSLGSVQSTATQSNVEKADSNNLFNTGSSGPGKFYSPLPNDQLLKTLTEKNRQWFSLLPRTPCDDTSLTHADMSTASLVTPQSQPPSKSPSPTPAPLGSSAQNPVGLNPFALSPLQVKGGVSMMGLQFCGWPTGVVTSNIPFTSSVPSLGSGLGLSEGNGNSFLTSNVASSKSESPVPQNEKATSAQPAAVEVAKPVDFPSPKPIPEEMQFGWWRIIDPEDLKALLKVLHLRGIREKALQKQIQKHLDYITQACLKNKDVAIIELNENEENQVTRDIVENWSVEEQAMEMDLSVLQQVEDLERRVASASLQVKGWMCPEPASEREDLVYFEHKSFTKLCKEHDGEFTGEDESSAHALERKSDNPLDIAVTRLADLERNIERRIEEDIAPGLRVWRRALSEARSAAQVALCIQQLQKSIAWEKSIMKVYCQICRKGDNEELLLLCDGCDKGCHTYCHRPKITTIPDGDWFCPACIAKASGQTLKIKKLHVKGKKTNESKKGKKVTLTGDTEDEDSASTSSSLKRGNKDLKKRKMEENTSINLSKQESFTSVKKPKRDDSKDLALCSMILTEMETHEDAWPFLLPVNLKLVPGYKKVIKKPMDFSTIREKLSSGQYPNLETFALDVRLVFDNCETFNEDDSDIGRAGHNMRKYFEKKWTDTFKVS

inhibition [1]	inhibition [2]	inhibition [3]	inhibition [4]	Structure (SMILES)
< 25%	< 25%	< 25%	–	Cc1ccc(-c2nn3c(C)nnc3c3ccccc23)cc1S(=O)(=O)N(C)C
< 25%	< 25%	< 25%	–	CNS(=O)(=O)c1cc(-c2nn3c(C)nnc3c3ccccc23)ccc1C
< 25%	< 25%	< 25%	–	CCC(=O)Nc1cc(-c2nn3c(C)nnc3c3ccccc23)ccc1C
–	–	–	< 30%	Cc1nnc2c3ccccc3c(-c3ccc(N4CCOCC4)c(NS(=O)(=O)c4ccc(Cl)cc4)c3)nn12
–	–	–	< 30%	Cc1nnc2c3ccccc3c(-c3ccc(N4CCOCC4)c(NS(C)(=O)=O)c3)nn12
–	–	–	< 30%	COc1ccc(S(=O)(=O)Nc2cc(-c3nn4c(C)nnc4c4ccccc34)ccc2N2CCN(C)CC2)cc1
< 25%	< 25%	< 25%	–	Cc1ccc(-c2nn3c(C)nnc3c3ccccc23)cc1NS(C)(=O)=O
–	–	–	< 30%	Cc1nnc2c3ccccc3c(-c3ccc(N4CCOCC4)c(NS(=O)(=O)c4ccccc4Cl)c3)nn12

Source: ChEMBL document CHEMBL3108763, “[1,2,4]triazolo[4,3-a]phthalazines: inhibitors of diverse bromodomains” (J Med Chem, 2014)
